`COC(=O)c1cc2nnn(-c3ccccc3)c2nc1OCc1ncnn1C` registered a melting point of 188 to 190 °C. Next, `Cn1ncnc1COc1nc2c(cc1-c1ccc(F)cc1)nnn2-c1ccccc1F`: 142 to 145 °C. Next, `Cn1ncnc1COc1nc2c(cc1-c1ccco1)nnn2-c1ccccc1F`: 170 to 173 °C. Next, `Cn1ncnc1COc1nc2c(cc1-c1ccoc1)nnn2-c1ccccc1F`: 145 to 146 °C.

In turn, `Cn1cnc(COc2nc3c(cc2-c2ccsc2)nnn3-c2ccccc2F)n1` returned a melting point of 174 to 176 °C. `Cn1cnc(COc2nc3c(cc2-c2cccs2)nnn3-c2ccccc2F)n1`: the melting point lay within 179 to 181 °C. Next, `Cn1ncnc1COc1nc2c(cc1-c1cccc(F)c1)nnn2-c1c(F)cccc1F`: 137 to 140 °C. Next, `Cn1ncnc1COc1nc2c(cc1-c1ccoc1)nnn2-c1c(F)cccc1F`: 166 to 169 °C; `Cn1ncnc1COc1nc2c(cc1C(C)(C)C)nnn2-c1ccccc1`: 165 to 167 °C. The compound `Cn1cnc(COc2nc3c(cc2C(C)(C)C)nnn3-c2ccccc2)n1` registered a melting point of 179 to 180 °C. Next, `Cn1ncnc1COc1nc2c(cc1C(C)(C)C)nnn2-c1ccccc1F`: 115 to 117 °C. Next, `CCCn1ncnc1COc1nc2c(cc1C(C)(C)C)nnn2-c1ccccc1F`: 127 to 129 °C.

The compound `Cn1cnc(COc2nc3c(cc2C(C)(C)C)nnn3-c2ccccc2F)n1` yielded a melting point of 127 to 129 °C.

As for `CCn1ncnc1COc1nc2c(cc1C(C)(C)C)nnn2-c1cc(F)ccc1F`, the melting point fell in the range of 148 to 150 °C. Next, `Cn1ncnc1COc1nc2c(cc1-c1ccccc1)nnn2-c1ccccc1F`: 144 to 146 °C. Next, `Cn1ncnc1COc1nc2c(cc1C(C)(C)C)nnn2-c1c(F)cccc1F`: 105 to 108 °C; `COc1cccc(F)c1-n1nnc2cc(C(C)(C)C)c(OCc3ncnn3C)nc21`: 116 to 118 °C; `Cn1ncnc1COc1nc2c(nnn2-c2ccccc2)c2ccccc12`: 188 to 190 °C. Next, `CCn1ncnc1COc1nc2c(nnn2-c2ccccc2)c2ccccc12`: 192 to 195 °C; `CCCn1ncnc1COc1nc2c(nnn2-c2ccccc2)c2ccccc12`: 154 to 156 °C. In turn, `Cn1cnc(COc2nc3c(nnn3-c3ccccc3)c3ccccc23)n1` had a melting point of 189 to 190 °C. `c1ccc(-n2nnc3c4ccccc4c(OCc4ccccn4)nc32)cc1`: the melting point was in the range of 147 to 150 °C. Next, `Cn1ncnc1COc1nc2c(cc1-c1ccsc1)nnn2-c1ccccc1F`: 133 to 135 °C. Next, `Cn1ncnc1COc1nc2c(cc1CC(C)(C)C)nnn2-c1ccccc1F`: 130 to 133 °C. Next, `Cn1ncnc1COc1nc2c(cc1C1CCC1)nnn2-c1ccccc1F`: 120 to 122 °C; `Cn1ncnc1COc1nc2c(cc1C1CCC1)nnn2-c1c(F)cccc1F` (hydrate or solvate): 140 to 144 °C.

Broadly, the melting point is the temperature, or range, at which the solid turns liquid.

The values above are taken from patent US6479506B1 (dated 2002).
